Where two headings read alike, the source gives them in different places.
Columns and labels:
[1] = molecular target: T1, androgen receptor (AR) splicing variant AR-v7 (Homo sapiens, UniProt P10275); test: Degradation activity on androgen receptor splicing variant AR-v7 in 22RV1 cells (ELISA); assay type: cell-based; settings: AR-v7 degradation in 22RV1 cells, 48 h, class symbols
T1 construct: The degradation activity of compounds on AR-v7 in 22RV1 cells; host or cells: 22RV1 cells
T1 sequence (P10275 1-644 isoform P10275-3): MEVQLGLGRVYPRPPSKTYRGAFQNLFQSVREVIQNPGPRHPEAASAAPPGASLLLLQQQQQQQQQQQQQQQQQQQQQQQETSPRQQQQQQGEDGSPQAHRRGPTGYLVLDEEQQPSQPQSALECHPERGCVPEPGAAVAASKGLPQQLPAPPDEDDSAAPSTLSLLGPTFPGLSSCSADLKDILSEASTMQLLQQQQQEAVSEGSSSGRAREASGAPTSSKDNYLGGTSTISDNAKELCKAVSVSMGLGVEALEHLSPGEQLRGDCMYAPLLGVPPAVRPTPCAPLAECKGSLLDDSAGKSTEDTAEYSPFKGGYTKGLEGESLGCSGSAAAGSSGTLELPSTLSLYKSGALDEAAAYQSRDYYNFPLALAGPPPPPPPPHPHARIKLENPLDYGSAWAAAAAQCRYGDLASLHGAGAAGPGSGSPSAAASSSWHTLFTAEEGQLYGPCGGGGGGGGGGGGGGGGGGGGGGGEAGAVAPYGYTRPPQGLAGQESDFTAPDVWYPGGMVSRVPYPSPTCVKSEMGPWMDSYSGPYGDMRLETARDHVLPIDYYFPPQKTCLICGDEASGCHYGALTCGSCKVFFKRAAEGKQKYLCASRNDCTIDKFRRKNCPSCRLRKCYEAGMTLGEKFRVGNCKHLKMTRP

[2] = Homo sapiens, 22Rv1, 144 h, read-out: 22RV1 IC50 (nM), 22RV1 cells, 6 days culture, CCK-8, OD 450 nm

Row | Structure (SMILES) | DC50 [1] | IC50 (22RV1 cells; [2]) | IC50 (22RV1 cells; read-out: 22RV1 IC50, 22RV1 cells, 6 days culture, CCK-8, OD 450 nm) | IC50 (22RV1 cells; Homo sapiens, 22Rv1, 144 h, read-out: 22RV1 IC50 (nM))
1 | CC(C)(c1ccc(OCCCCCCCCOCCCCNc2ccc3c(c2)C(=O)N(C2CCC(=O)NC2=O)C3=O)cc1)c1ccc(OCc2ccnc(N3CC4(COC4)C3)n2)cc1 (stereo not shown) [Example 61, 5-((4-((8-(4-(2-(4-((2-(2-oxa-6-azaspiro[3.3]heptan-6-yl)pyrimidin-4-yl)methoxy)phenyl)propan-2-yl)phenoxy)octyl)oxy)butyl)amino)-2-(2,6-dioxopiperidin-3-yl)isoindolin-1,3-dione] | 1000 to 5000 nM | – | – | 4000 nM
2 | CC(C)(c1ccc(OCCCCCCCOCCCOCCCNc2ccc3c(c2)C(=O)N(C2CCC(=O)NC2=O)C3=O)cc1)c1ccc(OCc2ccnc(N3CC4(COC4)C3)n2)cc1 (stereo not shown) [Example 62, 5-((3-(3-((7-(4-(2-(4-((2-(2-oxa-6-azaspiro[3.3]heptan-6-yl)pyrimidin-4-yl)methoxy)phenyl)propan-2-yl)phenoxy)heptyl)oxy)propoxy)propyl)amino)-2-(2,6-dioxopiperidin-3-yl)isoindolin-1,3-dione] | 1000 to 5000 nM | 1500 nM | – | –
3 | CSc1nccc(COc2ccc(C(C)(C)c3ccc(OCCCNc4ccc5c(c4)C(=O)N(C4CCC(=O)NC4=O)C5=O)cc3)cc2)n1 (stereo not shown) [Example 66] | 11 to 100 nM | 70 nM | – | –
4 | COc1nccc(COc2ccc(C(C)(C)c3ccc(OCCCNc4ccc5c(c4)C(=O)N(C4CCC(=O)NC4=O)C5=O)cc3)cc2)n1 (stereo not shown) [Example 68, 2-(2,6-dioxopiperidin-3-yl)-5-((3-(4-(2-(4-((2-methoxypyrimidin-4-yl)methoxy)phenyl)propan-2-yl)phenoxy)propyl)amino)isoindolin-1,3-dione] | 11 to 100 nM | 30 nM | – | –
5 | CCOc1nccc(COc2ccc(C(C)(C)c3ccc(OCCCNc4ccc5c(c4)C(=O)N(C4CCC(=O)NC4=O)C5=O)cc3)cc2)n1 (stereo not shown) [Example 69, 2-(2,6-dioxopiperidin-3-yl)-5-((3-(4-(2-(4-((2-ethoxypyrimidin-4-yl)methoxy)phenyl)propan-2-yl)phenoxy)propyl)amino)isoindolin-1,3-dione] | 11 to 100 nM | 50 nM | – | –
6 | CC(C)(c1ccc(OCCCNc2ccc3c(c2)C(=O)N(C2CCC(=O)NC2=O)C3=O)cc1)c1ccc(OCc2ccnc(OC3CC3)n2)cc1 (stereo not shown) [Example 70, 5-((3-(4-(2-(4-((2-cyclopropyloxypyrimidin-4-yl)methoxy)phenyl)propan-2-yl)phenoxy)propyl)amino)-2-(2,6-dioxopiperidin-3-yl)isoindolin-1,3-dione] | 11 to 100 nM | 30 nM | – | –
7 | CN1CCN(c2nccc(COc3ccc(C(C)(C)c4ccc(OCCCNc5ccc6c(c5)C(=O)N(C5CCC(=O)NC5=O)C6=O)cc4)cc3)n2)CC1 (stereo not shown) [Example 72] | 11 to 100 nM | 37 nM | – | –
8 | CC(C)(c1ccc(OCCCNc2ccc3c(c2)C(=O)N(C2CCC(=O)NC2=O)C3=O)cc1)c1ccc(OCc2ccnc(N)n2)cc1 (stereo not shown) [Example 74, 5-((3-(4-(2-(4-((2-aminopyrimidin-4-yl)methoxy)phenyl)propan-2-yl)phenoxy)propyl)amino)-2-(2,6-dioxopiperidin-3-yl)isoindolin-1,3-dione] | 11 to 100 nM | 31 nM | – | –
9 | Cc1nnc(-c2ncc(F)cc2Oc2ccc(C(C)(C)c3ccc(O[C@H]4C[C@H](Nc5ccc6c(c5)C(=O)N(C5CCC(=O)NC5=O)C6=O)C4)cc3)cc2)o1 (stereo partly shown) [Example 95, 2-(2,6-dioxopiperidin-3-yl)-5-(((1r,3r)-3-(4-(2-(4-((5-fluoro-2-(5-methyl-1,3,4-oxadiazol-2-yl)pyridin-3-yl)oxy)phenyl)propan-2-yl)phenoxy)cyclobutyl)amino)isoindolin-1,3-dione] | < 10 nM | 6 nM | – | –
10 | Cc1nnc(-c2cnc(Oc3ccc(C(C)(C)c4ccc(O[C@H]5C[C@H](Nc6ccc7c(c6)C(=O)N(C6CCC(=O)NC6=O)C7=O)C5)cc4)cc3)o2)o1 (stereo partly shown) [Example 96, 2-(2,6-dioxopiperidin-3-yl)-5-(((1r,3r)-3-(4-(2-(4-((5-(5-methyl-1,3,4-oxadiazol-2-yl)oxazol-2-yl)oxy)phenyl)propan-2-yl)phenoxy)cyclobutyl)amino) isoindolin-1,3-dione] | < 10 nM | 25 nM | – | –
11 | CC(O)c1ccc(Oc2ccc(C3(c4ccc(O[C@H]5C[C@H](Nc6ccc7c(c6)C(=O)N(C6CCC(=O)NC6=O)C7=O)C5)cc4)CCCC3)cc2)nn1 (stereo partly shown) [Example 103] | < 10 nM | 2 nM | – | –
12 | CC(=O)c1ccc(Oc2ccc(C3(c4ccc(O[C@H]5C[C@H](Nc6ccc7c(c6)C(=O)N(C6CCC(=O)NC6=O)C7=O)C5)cc4)CCCC3)cc2)nn1 (stereo partly shown) [Example 104] | < 10 nM | 1 nM | – | –
13 | CC(O)c1ccc(Oc2ccc(C3(c4ccc(O[C@H]5C[C@H](Nc6ccc7c(c6)C(=O)N(C6CCC(=O)NC6=O)C7=O)C5)cc4)CCOCC3)cc2)nn1 (stereo partly shown) [Example 105] | < 10 nM | 0.2 nM | – | –
14 | CC(=O)c1ccc(Oc2ccc(C3(c4ccc(O[C@H]5C[C@H](Nc6ccc7c(c6)C(=O)N(C6CCC(=O)NC6=O)C7=O)C5)cc4)CCOCC3)cc2)nn1 (stereo partly shown) [Example 106] | < 10 nM | 0.3 nM | – | –
15 | CC(=O)c1nccc(COc2ccc(C(C)(C)c3ccc(OCCNc4ccc5c(c4)C(=O)N(C4CCC(=O)NC4=O)C5=O)cc3)cc2)n1 (stereo not shown) [Example 109, 5-((2-(4-(2-(4-((2-acetylpyrimidin-4-yl)methoxy)phenyl)propan-2-yl)phenoxy)ethyl)amino)-2-(2,6-dioxopiperidin-3-yl) isoindolin-1,3-dione] | < 10 nM | 9 nM | – | –

Now from value to compound, other results behind:

Row | DC50 [1] | IC50 (22RV1 cells; [2]) | IC50 (22RV1 cells; read-out: 22RV1 IC50, 22RV1 cells, 6 days culture, CCK-8, OD 450 nm) | Structure (SMILES) | IC50 (22RV1 cells; Homo sapiens, 22Rv1, 144 h, read-out: 22RV1 IC50 (nM))
16 | 11 to 100 nM | 35 nM | – | CC(C)(c1ccc(OCCCNc2ccc3c(c2)C(=O)N(C2CCC(=O)NC2=O)C3=O)cc1)c1ccc(OCc2ccnc(N3CCOCC3)n2)cc1 (stereo not shown) [Example 71, 2-(2,6-dioxopiperidin-3-yl)-5-((3-(4-(2-(4-((2-morpholinepyrimidin-4-yl)methoxy)phenyl)propan-2-yl)phenoxy)propyl)amino)isoindolin-1,3-dione] | –
17 | 11 to 100 nM | 25 nM | – | CC(C)(c1ccc(OCCCNc2ccc3c(c2)C(=O)N(C2CCC(=O)NC2=O)C3=O)cc1)c1ccc(OCc2ccnc(N3CC4(COC4)C3)n2)cc1 (stereo not shown) [Example 73, 5-((3-(4-(2-(4-((2-(2-oxa-6-azaspiro[3.3]heptan-6-yl)pyrimidin-4-yl)methoxy)phenyl)propan-2-yl)phenoxy)propyl)amino)-2-(2,6-dioxopiperidin-3-yl)isoindolin-1,3-dione] | –
18 | 11 to 100 nM | 44 nM | – | CC(C)(c1ccc(OCCCNc2ccc3c(c2)C(=O)N(C2CCC(=O)NC2=O)C3=O)cc1)c1ccc(OCc2ccnc(N3CCC4(CC3)COC4)n2)cc1 (stereo not shown) [Example 77, 5-((3-(4-(2-(4-((2-(2-oxa-7-azaspiro[3.5]nonan-7-yl)pyrimidin-4-yl)methoxy)phenyl)propan-2-yl)phenoxy)propyl)amino)-2-(2,6-dioxopiperidin-3-yl)isoindolin-1,3-dione] | –
19 | < 10 nM | 15 nM | – | CC(C)(c1ccc(OCc2ccnc(N3CC4(CCOC4)C3)n2)cc1)c1ccc(O[C@H]2C[C@@H](Nc3ccc4c(c3)C(=O)N(C3CCC(=O)NC3=O)C4=O)C2)cc1 (stereo partly shown) [Example 88, 5-(((1s,3s)-3-(4-(2-(4-((2-(6-oxa-2-azaspiro[3.4]octan-2-yl)pyrimidin-4-yl)methoxy)phenyl)propan-2-yl)phenoxy)cyclobutyl)amino)-2-(2,6-dioxopiperidin-3-yl)isoindolin-1,3-dione] | –
20 | < 10 nM | 16 nM | – | CC(C)(c1ccc(OCc2ccnc(N3CC4(CCOCC4)C3)n2)cc1)c1ccc(O[C@H]2C[C@@H](Nc3ccc4c(c3)C(=O)N(C3CCC(=O)NC3=O)C4=O)C2)cc1 (stereo partly shown) [Example 89, 5-(((1s,3s)-3-(4-(2-(4-((2-(7-oxa-2-azaspiro[3.5]nonan-2-yl)pyrimidin-4-yl)methoxy)phenyl)propan-2-yl)phenoxy)cyclobutyl)amino)-2-(2,6-dioxopiperidin-3-yl)isoindolin-1,3-dione] | –
21 | < 10 nM | 2 nM | – | CC(C)(c1ccc(OCc2ccnc(N3CC4(COC4)C3)n2)cc1)c1ccc(O[C@H]2C[C@@H](Nc3ccc4c(c3)CN(C3CCC(=O)NC3=O)C4=O)C2)cc1 (stereo partly shown) [Example 91, 3-(5-(((1s,3s)-3-(4-(2-(4-((2-(2-oxa-6-azaspiro[3.3]heptane-6-yl)pyrimidin-4-yl)methoxy)phenyl)propan-2-yl)phenoxy)cyclobutyl)amino)-1-oxoisoindolin-2-yl)piperidin-2,6-dione] | –
22 | < 10 nM | – | 2.4 nM | Cc1nc(-c2ncc(Oc3ccc(C(C)(C)c4ccc(OC5CC(Nc6ccc7c(c6)CN([C@H]6CCC(=O)NC6=O)C7=O)C5)cc4)cc3)cn2)no1 (stereo partly shown) [Example 101] | –
23 | < 10 nM | 5 nM | – | CC(C)(c1ccc(OCc2ccnc(C(=O)C3CC3)n2)cc1)c1ccc(O[C@H]2C[C@H](Nc3ccc4c(c3)C(=O)N(C3CCC(=O)NC3=O)C4=O)C2)cc1 (stereo partly drawn) [Example 115, 5-(((trans)-3-(4-(2-(4-((2-(cyclopropanecarbonyl)pyrimidin-4-yl)methoxy)phenyl)propan-2-yl)phenoxy)cyclobutyl)amino)-2-(2,6-dioxopiperidin-3-yl)isoindolin-1,3-dione] | –
